According to publication PMC5929572, “Nucleobases and corresponding nucleosides display potent antiviral activities against dengue virus possibly through viral lethal mutagenesis” (PLoS Neglected Tropical Diseases, 2018):

Experiments:
[1] = tested on: DENV-2 viral replicon; test: microbe, parasite or virus in culture; type: cell-based; conditions: DENV replicon cells, EC50 compared
Description: Compounds were evaluated for antiviral properties using BHK cells containing a DENV-2 viral replicon. 1.5 × 10^3 replicon-containing cells per well were plated in white opaque 96-well plates in the absence of antibiotic selection and the next day, compounds dissolved in DMSO were added to triplicate wells in culture medium. The compounds were initially tested at 10 and 50 μM final concentrations and each plate also contained DMSO alone, medium alone, and 6. Three days later, medium was replaced with a 1:1000 dilution of ViVi-Ren Live Cell Substrate (Promega) in DME minus phenol red and 10% FBS. Luminescence was measured with a Molecular Devices M5e plate reader. Mean values of triplicate wells were determined and compared to the mean value for the wells that received DMSO alone. […] The EC50 was determined by comparing luciferase activity for eight serial dilutions of the compound and DMSO treated cells using GraphPad Prism software.

[2] = Cell viability assay (MTS) in DENV replicon cells; type: cell-based, baby hamster; conditions: hamster, DENV replicon cells (BHK pD2-hRucPac-2ATG30), DENV replicon BHK cells, MTS, 72 h
[3] = tested on: DENV-2; test: Virus passage in presence of compound, genome copy number by RT-qPCR (NS5); type: cell-based, DENV-2 New Guinea C strain; conditions: 3a 200 μM, Huh-7, passage 6; limit of detection 30 copies
Description: For qPCR determination of viral genome copy number, viral RNA was isolated from 140 μL of drug-treated or DMSO-treated infected culture supernatant using QIAamp Viral RNA mini kit (Qiagen), following manufacturer’s protocol. Viral RNA was quantified using the TaqMan RNA-to-CT 1-Step qPCR Kit (Applied Biosystems). Primers used for qPCR were 5’-[…]-3’ (forward) and 5’-[…]-3’ (reverse) amplifying a region numbering 8928–8988 in the genome (numbering starting from the beginning of genome, accession number KM204118). The qPCR FAM probe sequence is 5’-[…]-3’. Serial 10-fold dilutions of plasmid containing the NS5 gene of DENV were used to generate a standard curve for the quantification of viral RNA genome copy number based on cycle threshold (CT) values. […] Sequences were aligned over a 980-base region that had adequate quality sequencing reads for all clones. Only mutations present in both the forward and reverse reads of a clone were counted. All incidence-based determinants of mutation frequency (Mf min, Mf max, Mfe) were calculated as described.
(§1) Virus was passaged on Huh-7 cells supplemented with 200 μM 3a, 500 μM 3b or DMSO (0.5%). […] The virus titer in the harvested supernatant was determined by plating ten-fold serial dilutions onto single wells of a 24-well plate. […] Supernatant titer was determined from a single well where there were approximately 20–50 plaques when possible. […]

[4] = tested on: DENV-2; test: Virus passage in presence of compound, supernatant titer by plaque assay; type: cell-based, DENV-2 New Guinea C strain; conditions: 3a 200 μM, Huh-7, passages 5 and 6; limit of detection 3.3 pfu/mL
Description: Huh-7 cells were seeded in 12-well plates at a density of 4×10^5 cells per well in 1 mL culture medium. The next day, cells were washed and inoculated with DENV at a multiplicity of infection (m.o.i.) of 0.2 in 500μl infection medium (MEM containing 2% FBS and 10 mM HEPES). The inoculum was removed after 1h, cells were washed with PBS and then incubated in 1 mL MEM, 2% FBS, 1% pen/strep plus compound for 72 h. Viral supernatants were clarified by centrifugation for 5 min at 1500×g and aliquoted and stored at -80°C. Viral titers were determined using a plaque assay on Vero cells. Briefly, confluent Vero cell monolayers in 24-well plates were incubated at 37°C for 1 h with duplicate 300 μl samples of 10-fold serial dilutions of viral supernatants. The cells were then washed to remove unbound viral particles and overlaid with 500ul MEM containing 1.3% methylcellulose, 5% FBS and 10mM HEPES. […] Infectious virus titer (pfu/mL) was determined using the following formula: number of plaques × dilution factor × (1/inoculation volume). […]
as §1

[5] = tested on: DENV-2; test: Titer reduction assay in Huh-7 cells, plaque assay on Vero cells; type: cell-based, DENV-2 New Guinea C strain; conditions: Dengue virus, DENV2, m.o.i. 0.2, 72 h
Description: Huh-7 cells were seeded in 12-well plates at a density of 4×10^5 cells per well in 1 mL culture medium. The next day, cells were washed and inoculated with DENV at a multiplicity of infection (m.o.i.) of 0.2 in 500μl infection medium (MEM containing 2% FBS and 10 mM HEPES). The inoculum was removed after 1h, cells were washed with PBS and then incubated in 1 mL MEM, 2% FBS, 1% pen/strep plus compound for 72 h. Viral supernatants were clarified by centrifugation for 5 min at 1500×g and aliquoted and stored at -80°C. Viral titers were determined using a plaque assay on Vero cells. Briefly, confluent Vero cell monolayers in 24-well plates were incubated at 37°C for 1 h with duplicate 300 μl samples of 10-fold serial dilutions of viral supernatants. The cells were then washed to remove unbound viral particles and overlaid with 500ul MEM containing 1.3% methylcellulose, 5% FBS and 10mM HEPES. After 5 days of incubation at 37°C and 5% CO2, cells were washed with PBS, fixed, and stained using 1% Giemsa. Infectious virus titer (pfu/mL) was determined using the following formula: number of plaques × dilution factor × (1/inoculation volume). The viral titer was presented as the mean of duplicate samples from a dilution yielding approximately 20–50 plaques per well.

[6] = tested on: DENV-2; test: Sequence analysis of prM/E region clones from passaged virus (mutation frequency); type: cell-based, DENV-2 New Guinea C strain
Description: For qPCR determination of viral genome copy number, viral RNA was isolated from 140 μL of drug-treated or DMSO-treated infected culture supernatant using QIAamp Viral RNA mini kit (Qiagen), following manufacturer’s protocol. Viral RNA was quantified using the TaqMan RNA-to-CT 1-Step qPCR Kit (Applied Biosystems). Primers used for qPCR were 5’-[…]-3’ (forward) and 5’-[…]-3’ (reverse) amplifying a region numbering 8928–8988 in the genome (numbering starting from the beginning of genome, accession number KM204118). The qPCR FAM probe sequence is 5’-[…]-3’. Serial 10-fold dilutions of plasmid containing the NS5 gene of DENV were used to generate a standard curve for the quantification of viral RNA genome copy number based on cycle threshold (CT) values. The limit of detection for NS5 plasmid dilutions was 30 copies (S1 Fig). […] Statistical analysis via GraphPad Prism 5 software. To obtain sequence data from viral RNA isolated at each passage, cDNA was generated via M-MLV reverse transcriptase and random hexamers (New England Biolab Inc.) per manufacturer’s instructions. An approximately 1600-base fragment covering membrane protein (prM) and envelop protein gene (E) of DENV-2 viral genome was amplified using PfuUltra II Fusion HS DNA polymerase (Agilent) with primers prMEfor (5'- […]-3') and prMErev (5'- […] -3'). PCR products were purified using Qiaquick PCR purification kit (Qiagen) and then digested with EcoRI and ligated into pcDNA3.1 for sequencing. Sequence for approximately 40–50 individual clones per sample was obtained from the University of Minnesota Genomics Center. Sequences were aligned over a 980-base region that had adequate quality sequencing reads for all clones. Only mutations present in both the forward and reverse reads of a clone were counted. All incidence-based determinants of mutation frequency (Mf min, Mf max, Mfe) were calculated as described.
Virus was passaged on Huh-7 cells supplemented with 200 μM 3a, 500 μM 3b or DMSO (0.5%). Huh-7 cells were seeded in 12-well plates and inoculated with DENV-2 as described for Titer reduction experiments above except an m.o.i. of 0.01 was used. After 3 days of compound treatment, 50 μL of the harvested supernatant was used to inoculate fresh Huh-7 cells in the continued presence of compound. The virus titer in the harvested supernatant was determined by plating ten-fold serial dilutions onto single wells of a 24-well plate. The wells were washed and overlaid as described in the Titer reduction assay above. If no plaques were obtained in any of the harvested supernatant dilutions, the undiluted supernatant was used. If plaques were not detectable, the virus titer was considered to be at the limit of detection, 1 plaque (3.3 pfu/mL). Supernatant titer was determined from a single well where there were approximately 20–50 plaques when possible. This experiment was repeated three times at the compound concentrations listed.

[7] = Cell viability assay (MTS) in Huh-7 cells; type: cell-based; conditions: human
Description: The sensitivity of the cell lines to the compounds was examined using the 3-(4,5-dimethylthiazol-2-yl)-5-(3-carboxymethoxyphenyl)-2-(4-sulfophenyl)-2H-tetrazolium (MTS)-based tetrazolium reduction CellTiter 96 Aqueous Non-Radioactive cell proliferation assay (Promega G5430). The compounds were initially tested at 10 and 50 μM final concentrations. Each plate also contained DMSO alone, medium alone, and an inhibitory compound, 6. DENV replicon or Huh-7 cells were plated at a density of 1,500 or 8 × 10^3 cells, respectively, per well in 96-well plates containing 100 μl of culture medium overnight. Compounds were added to triplicate wells in culture medium and incubated for an additional 72 h. MTS reagent was then added to each well and incubated at 37°C in a humidified 5% CO2 atmosphere. The plates were read at various time points at a wavelength of 490 nm using a Molecular Devices M5e plate reader. Mean values of triplicate wells were determined and compared to the mean value for the wells that received DMSO alone. For compounds selected for dose-response experiments, the CC50 was determined by comparing cell viability for eight serial dilutions of the compound and DMSO treated cells using GraphPad Prism software.

[8] = passage 2, 3a 200 μM, 3b 500 μM, Huh-7
[9] = passage 3, 3a 200 μM, 3b 500 μM, Huh-7

NC(=O)c1nccnc1O [Compound 3a, 3-Hydroxy-2-pyrazinecarboxamide]
times more active than nucleobase 5a (favipiravir) [1]: 5 times
CC50 at 72 h [2]: > 665 µM
genomic RNA in supernatant [3]: no genomic RNA was detected
infectious virus in supernatant [4]: no infectious virus was detected
EC50 [5]: 20 ± 11 µM
number of mutations per clone compared to DMSO ([6]; 3a 200 μM passage 4, 3b 500 μM passage 3, p < 0.0001, Mann-Whitney U): significant difference
Mf max (maximum mutation frequency) [6, 8]: 24.6 per 10,000 nucleotides
Mf min (minimum mutation frequency) [6, 8]: 5.2 per 10,000 nucleotides
Mfe (entity level mutation frequency) [6, 8]: 2.5 ×10^−3
Number of clones with mutation/total [6, 8]: 26/36
Number of different mutations [6, 8]: 17
Number of haplotypes [6, 8]: 17
Number of total mutations [6, 8]: 80
Transition A→G, number of mutations [6, 8]: 3
Transition C→U, number of mutations [6, 8]: 4
Transition G→A, number of mutations [6, 8]: 3
Transition U→C, number of mutations [6, 8]: 1
Transversion A→U, number of mutations [6, 8]: 1
Transversion G→U, number of mutations [6, 8]: 2
Transversion U→A, number of mutations [6, 8]: 2
Transversion U→G, number of mutations [6, 8]: 1
Mf max (maximum mutation frequency) [6, 9]: 5.7 per 10,000 nucleotides
Mf min (minimum mutation frequency) [6, 9]: 2.7 per 10,000 nucleotides
Mfe (entity level mutation frequency) [6, 9]: 1.4 ×10^−3
Number of clones with mutation/total [6, 9]: 12/37
Number of different mutations [6, 9]: 9
Number of haplotypes [6, 9]: 9
Number of total mutations [6, 9]: 19
Transition C→U, number of mutations [6, 9]: 3
Transition G→A, number of mutations [6, 9]: 3
Transition U→C, number of mutations [6, 9]: 2
Transversion G→U, number of mutations [6, 9]: 1
Mf max (maximum mutation frequency) ([6]; passage 4, 3a 200 μM, Huh-7): 6.6 per 10,000 nucleotides
Mf min (minimum mutation frequency) ([6]; passage 4, 3a 200 μM, Huh-7): 3.9 per 10,000 nucleotides
Mfe (entity level mutation frequency) ([6]; passage 4, 3a 200 μM, Huh-7): 1.6 ×10^−3
Number of clones with mutation/total ([6]; passage 4, 3a 200 μM, Huh-7): 19/45
Number of different mutations ([6]; passage 4, 3a 200 μM, Huh-7): 16
Number of haplotypes ([6]; passage 4, 3a 200 μM, Huh-7): 15
Number of total mutations ([6]; passage 4, 3a 200 μM, Huh-7): 27
Transition A→G, number of mutations ([6]; passage 4, 3a 200 μM, Huh-7): 2
Transition C→U, number of mutations ([6]; passage 4, 3a 200 μM, Huh-7): 3
Transition G→A, number of mutations ([6]; passage 4, 3a 200 μM, Huh-7): 3
Transition U→C, number of mutations ([6]; passage 4, 3a 200 μM, Huh-7): 4
Transversion C→A, number of mutations ([6]; passage 4, 3a 200 μM, Huh-7): 2
Transversion U→A, number of mutations ([6]; passage 4, 3a 200 μM, Huh-7): 2
CC50 at 72 h [7]: > 1000 µM
